Experimental data published in article PMC9585589 (ACS Chemical Neuroscience, 2022).
Where two headings read alike, the source gives them in different places.

Legend:
human CB1 receptor = human CB1 receptor (Homo sapiens, UniProt P21554); test: biochemical; assay type: binding; design: purchased Merck HTS019M; host or cells: Chem-1 cells
Excerpt: Compounds selected for the in vitro binding assay from the first iteration of VS were purchased via MolPort, SIA, Riga, Latvia and Biopurify Phytochemicals Ltd., Chengdu, China. Compounds from the second iteration were purchased from MolPort, SIA, Riga, Latvia and Chemspace, SIA, Riga, Latvia (Supporting Information S3). […] Membranes from cells overexpressing the human CB1 receptor (ChemiScreen CB1 Cannabinoid Receptor Membrane Preparation, cat. no. HTS019M) as well as MgCl2, CaCl2, Trizma Base, NaCl, polyethylenimine (PEI) and dimethyl sulfoxide (DMSO) were purchased from Merck (USA). Bovine serum albumin (BSA) was obtained from Pol-Aura (Poland).
Compounds were dissolved in 50% DMSO and added to the reaction mixture at 10 concentrations equally spaced on a log scale (10^–10 to 10^–4.5 M). The final DMSO concentration was 5%. […] The reaction mixture (500 μL) was incubated for 1.5 h at 30°C . Before harvesting, Whatman GF/B Filter Paper (Brandel, USA) was presoaked with 0.33% PEI buffer for 30 min. and then washed with 2 ml of 50 mM Tris-HCl buffer (pH = 7.4) and 0.5% BSA to minimize non-specific binding. The reaction was terminated by depositing the samples onto GF/B filter paper with the Brandel M-24 Cell Harvester (Brandel, USA). Samples were then rapidly washed 3 times with 2 ml of ice-cold wash buffer (50 mM Tris-HCl pH 7.4, 500 mM NaCl) to separate the bound radioligand from free. Filters were then air-dried for 1 h at 60°C . After drying, filter discs were placed on a flexible 24-well plate and 500 μL of EcoScint-20 scintillant was added to each well. Plates were counted (2 min. per well) in a Trilux MicroBeta^2 2450 scintillation counter (Perkin Elmer, USA). Data were analyzed with GraphPad Prism 5.0 software.[89]

human CB1 = conditions: one per compound, cited from earlier work
[1] = [3H]CP-55,940 displacement, membranes of Chem-1 cells expressing human CB1
[2] = CB1 agonists, Table S8, ref SI (1)-(19)
[3] = CB1 antagonists/inverse agonists, Table S9, ref SI (20)-(38)
[4] = [3H]CP-55,940 displacement, membranes of Chem-1 cells expressing human CB1, read-out: pKi ± SEM (converted)

human CB1 receptor, sequence (P21554 whole entry): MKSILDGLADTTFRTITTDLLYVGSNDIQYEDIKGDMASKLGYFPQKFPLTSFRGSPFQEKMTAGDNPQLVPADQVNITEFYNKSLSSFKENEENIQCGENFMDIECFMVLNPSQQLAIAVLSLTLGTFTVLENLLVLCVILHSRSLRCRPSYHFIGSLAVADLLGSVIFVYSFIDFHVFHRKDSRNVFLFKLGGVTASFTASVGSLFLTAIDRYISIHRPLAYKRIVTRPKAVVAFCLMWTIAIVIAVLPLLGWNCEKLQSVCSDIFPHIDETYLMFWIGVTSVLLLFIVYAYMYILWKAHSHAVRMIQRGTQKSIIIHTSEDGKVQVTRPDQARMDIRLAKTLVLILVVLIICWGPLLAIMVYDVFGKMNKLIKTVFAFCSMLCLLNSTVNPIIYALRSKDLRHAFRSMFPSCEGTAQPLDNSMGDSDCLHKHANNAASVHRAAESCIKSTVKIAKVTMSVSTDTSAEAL

Compound | pKi ± SEM (human CB1 receptor; [1]) | Ki (μM, 95% CI) (human CB1 receptor) | other results
Cc1c(O[C@H](C)C(=O)NC[C@@H](O)c2ccccc2)ccc2c(-c3ccccc3)cc(=O)oc12 (racemic) [Compound 25] | 4.86 ± 0.09 | – | Ki (human CB1 receptor; read-out: Ki (μM, 95% CI)): 13.9 µM
Cc1ccc(COc2ccc3c(C)c(CC(=O)N4CCC5(O)CCCCC5C4)c(=O)oc3c2C)cc1 (racemic) [Compound 27] | insoluble | insoluble | –
COc1ccc(-c2cc(=O)c3c(O)cc4c(c3o2)C(c2cccc(Cl)c2F)CC(=O)O4)cc1O (racemic) [Compound 31] | no activity | no activity | –
Cc1ccc(S(=O)(=O)NC(Cc2c[nH]c3ccccc23)C(=O)Oc2ccc3c4c(c(=O)oc3c2)CCC4)cc1 (racemic) [Compound 36] | 4.39 ± 0.09 | – | Ki (human CB1 receptor; read-out: Ki (μM, 95% CI)): 41 µM
COc1cc2c(cc1OC)CN(C(=O)NC(CCSC)C(=O)NC1CCCc3ccccc31)CC2 (racemic) [Compound 39] | 4.40 ± 0.07 | – | Ki (human CB1 receptor; read-out: Ki (μM, 95% CI)): 40 µM
CCCCNC(=O)[C@@H]1CN(C(=O)c2cccc(OC)c2)C[C@H]1c1ccc(OC)cc1OC (racemic) [Compound 42] | no activity | no activity | –
CCCCC/C=C\C/C=C\C/C=C\C/C=C\CCCC(=O)NCCCl [ACEA] | – | – | Ki (human CB1; [2]): 0.0053 µM
Cc1c(C(=O)NN2CCOCC2)nn(-c2ccc(Cl)cc2Cl)c1-c1ccc(I)cc1 [AM-281] | – | – | Ki (human CB1; [3]): 0.012 µM
CC1=CC[C@@H]2[C@@H](C1)c1c(O)cc(C34CC5CC(CC(C5)C3)C4)cc1OC2(C)C [AM-411] | – | – | Ki (human CB1; [2]): 0.0068 µM
CC(C)(CCCCCCN=C=S)c1cc(O)c2c(c1)OC(C)(C)[C@@H]1CC[C@@H](CO)C[C@@H]21 [AM-841] | – | – | Ki (human CB1; [2]): 0.00114 µM
Cc1c(C(=O)NN2CCCCC2)nn(-c2ccc(Cl)cc2Cl)c1-c1ccc(C#CCCO[N+](=O)[O-])cc1 [AM-6538] | – | – | Ki (human CB1; [3]): 0.0034 µM
Cc1c(C(=O)NN2CCS(=O)(=O)CC2)nn(-c2ccc(Cl)cc2Cl)c1-c1ccc(C#CCCC#N)cc1 [AM-6545] | – | – | Ki (human CB1; [3]): 0.0017 µM
CC1=CC[C@@H]2[C@@H](C1)c1c(O)cc(C(C)(C)CCCCCCBr)cc1OC2(C)C [AM-11542] | – | – | Ki (human CB1; [2]): 0.00011 µM
CCOc1ccc(Cc2nc3cc(N(C)S(=O)(=O)c4cccs4)ccc3n2CC2CCCCC2)nc1 [AZ-11713908] | – | – | Ki (human CB1; [2]): 0.003 µM
CCCCCCC(C)(C)c1cc(O)c2c(c1)OC(C)(C)[C@@H]1CC=C(C(=O)O)C[C@@H]21 [Ajulemic acid] | – | – | Ki (human CB1; [2]): 0.0057 µM
CCCCC/C=C\C/C=C\C/C=C\C/C=C\CCCC(=O)NCCO [Anandamide] | – | – | Ki (human CB1; [2]): 0.07 µM
COc1ccccc1Oc1c(NS(=O)(=O)c2ccc(C(C)(C)C)cc2)nc(-c2ncccn2)nc1OCCO [Compound 1, Bosentan] | – | – | Ki (human CB1 receptor; Ki (μM, 95% CI)): 259 µM
O=c1[nH]c2ccccc2n1CCN1CCN(c2cccc(C(F)(F)F)c2)CC1 [Compound 2, Flibanserin] | – | – | Ki (human CB1 receptor; Ki (μM, 95% CI)): 109 µM
COc1cc(C(C)=O)ccc1OCCCN1CCC(c2noc3cc(F)ccc23)CC1 [Compound 3, Iloperidone] | – | – | Ki (human CB1 receptor; Ki (μM, 95% CI)): 87.9 µM; Ki (human CB1 receptor; [4]): 89.1 µM
O=C1[C@@H]2[C@H]3CC[C@H](C3)[C@@H]2C(=O)N1C[C@@H]1CCCC[C@H]1CN1CCN(c2nsc3ccccc23)CC1 [Compound 4, Lurasidone] | – | – | Ki (human CB1 receptor; Ki (μM, 95% CI)): 39.8 µM
COC(=O)C1=C(C)NC(C)=C(C(=O)OCCN(C)Cc2ccccc2)C1c1cccc([N+](=O)[O-])c1 (stereo not drawn) [Compound 5, Nicardipine] | no activity | no activity | –
CC(C)COc1ccc(CNC(=O)N(Cc2ccc(F)cc2)C2CCN(C)CC2)cc1 [Compound 6, Pimavanserin] | – | – | Ki (human CB1 receptor; [4]): 33.9 µM
O=C(NC[C@H]1CN(c2ccc(N3CCOCC3=O)cc2)C(=O)O1)c1ccc(Cl)s1 [Compound 7, Rivaroxaban] | no activity | no activity | –

Compound | pKi ± SEM (human CB1 receptor; [1]) | Ki (μM, 95% CI) (human CB1 receptor) | other results
CCCSc1nc(N[C@@H]2C[C@H]2c2ccc(F)c(F)c2)c2nnn([C@@H]3C[C@H](OCCO)[C@@H](O)[C@H]3O)c2n1 [Compound 8, Ticagrelor] | – | – | Ki (human CB1 receptor; [4]): 36.3 µM
CC(C)=CCC[C@](C)(O)[C@H]1CC[C@]2(C)[C@@H]1[C@H](O)C[C@@H]1[C@@]3(C)CC[C@H](O)C(C)(C)[C@@H]3[C@@H](O)C[C@]12C [Compound 10, (20S)-Protopanaxatriol] | no activity | no activity | –
O=c1cc(-c2ccc(O)cc2)oc2c(C3O[C@H](CO)[C@@H](O[C@@H]4O[C@H](CO)[C@@H](O)[C@H](O)[C@H]4O)[C@H](O)[C@H]3O)c(O)cc(O)c12 (stereo partly drawn) [Compound 11, 4”-O-Glucosylvitexin] | no activity | no activity | –
C[C@@]12C[C@@]3(O)O[C@@H](O1)[C@]1(COC(=O)c4ccccc4)[C@H]3C[C@@]12O[C@@H]1O[C@H](COC(=O)c2ccccc2)[C@@H](O)[C@H](O)[C@H]1O [Compound 12, Benzoylpaeoniflorin] | – | – | Ki (human CB1 receptor; Ki (μM, 95% CI)): 179 µM
O=C(O[C@@H]1O[C@@H]2COC(=O)c3cc(O)c(O)c(O)c3-c3c(cc(O)c(O)c3O)C(=O)O[C@H]([C@H]1O)[C@@H]2O)c1cc(O)c(O)c(O)c1 [Compound 13, Corilagin] | – | – | Ki (human CB1 receptor; Ki (μM, 95% CI)): 48 µM
CC(C)(O)[C@@H]1CC[C@](C)([C@H]2[C@@H](O)C[C@@]3(C)[C@@H]4C[C@H](O)[C@H]5C(C)(C)[C@@H](O)CC[C@@]56C[C@@]46CC[C@]23C)O1 [Compound 14, Cyclogalegenol] | 3.76 ± 0.20 | – | Ki (human CB1 receptor; read-out: Ki (μM, 95% CI)): 175 µM
COc1cc2c(cc1OC)[C@@H](Cc1ccc(O)c(Oc3cc4c(cc3OC)CCN(C)[C@@H]4Cc3ccc(O)cc3)c1)N(C)CC2 [Compound 16, Liensinine] | no activity | no activity | –
COc1cc2c(=O)c3c(O)c([C@@H]4O[C@H](CO[C@@H]5OC[C@](O)(CO)[C@H]5O)[C@@H](O)[C@H](O)[C@H]4O)c(O)cc3oc2cc1O [Compound 18, Polygalaxanthone III] | no activity | no activity | –
OCC1=C[C@@H](O)[C@]2(O[C@@H]3O[C@H](CO)[C@@H](O)[C@H](O)[C@H]3O[C@@H]3O[C@H](CO)[C@@H](O)[C@H](O)[C@H]3O)C=CO[C@@H](O[C@@H]3O[C@H](CO)[C@@H](O)[C@H](O)[C@H]3O)[C@H]12 [Compound 19, Rehmannioside D] | no activity | no activity | –
COc1cc(C2Oc3cc([C@H]4Oc5cc(O)cc(O)c5C(=O)[C@@H]4O)ccc3OC2CO)ccc1O (stereo partly drawn) [Compound 20, Silybin] | – | – | Ki (human CB1 receptor; Ki (μM, 95% CI)): 165 µM
O=c1c(O)cc([C@H]2Oc3cc(O)cc(O)c3C[C@H]2O)cc2c([C@H]3Oc4cc(O)cc(O)c4C[C@H]3O)cc(O)c(O)c12 [Compound 21, Theaflavin] | no activity | no activity | –
O=C(/C=C/c1ccc(O)cc1)OC[C@H]1O[C@@H](Oc2c(-c3ccc(O)cc3)oc3cc(O)cc(O)c3c2=O)[C@H](O)[C@@H](O)[C@@H]1O [Compound 22, Tiliroside] | – | – | Ki (human CB1 receptor; Ki (μM, 95% CI)): 47.2 µM
O=C(NCCc1ccc(F)cc1)c1cc2c([nH]c3ccccc32)c(-c2ccc(F)cc2)n1 [Compound 23] | no activity | no activity | –
CC(C)=CCC/C(C)=C/Cc1cc(C2CC(=O)c3c(O)cc(O)cc3O2)c(O)cc1O (stereo not drawn) [Compound 24, Kuwanon E] | – | – | Ki (human CB1 receptor; [4]): 30.9 µM
CC(C)=CCCC1(C)C=Cc2c(ccc(C3CC(=O)c4c(O)cc(O)cc4O3)c2O)O1 (stereo not drawn) [Compound 26, Sanggenon N] | 4.71 ± 0.05 | – | Ki (human CB1 receptor; read-out: Ki (μM, 95% CI)): 19 µM
COc1ccc(CCNC(=O)c2[nH]c3ccccc3c2NC(=O)c2cccc(C)c2)cc1OC [Compound 28] | no activity | no activity | –
CCCS(=O)(=O)Nc1ccc(F)c(C(=O)c2c[nH]c3ncc(-c4ccc(Cl)cc4)cc23)c1F [Compound 29, Vemurafenib] | no activity | no activity | –
COc1ccc(-c2nc(C(=O)NCCc3ccc(Cl)cc3Cl)cc3c2[nH]c2ccccc23)cc1OC [Compound 35] | 4.35 ± 0.09 | – | Ki (human CB1 receptor; read-out: Ki (μM, 95% CI)): 44 µM
COc1ccc(-c2nc3ccc(C(=O)NCc4ccc(Cl)cc4)cc3nc2-c2ccc(OC)cc2)cc1 [Compound 37] | no activity | no activity | –
COc1ccc(-n2c(=O)c3ccc(C(=O)NCCc4ccccc4)cc3n(Cc3ccccc3F)c2=O)cc1 [Compound 40] | no activity | no activity | –
O=C1NCCN1CCN1CCC(c2cn(-c3ccc(F)cc3)c3ccc(Cl)cc23)CC1 [Compound 44, Sertindole] | – | – | Ki (human CB1 receptor; [4]): 41.7 µM
Cc1nc2c([nH]1)-c1ccccc1N(C(=O)c1ccc(NC(=O)c3ccccc3-c3ccccc3)cc1)CC2 [Compound 45, Conivaptan] | no activity | no activity | –
